Results reported in patent US20240132431A1, “METHOD FOR ALKYLATING ACIDIC FUNCTIONAL GROUP” (Chugai Seiyaku Kabushiki Kaisha, priority 2021, published 2024).

Biological target: T1, Bcl-2 protein (Recombinant Human Bcl-2 Protein) (Homo sapiens, UniProt P10415)
T1 construct: purchased Novus NBP2-34889
Assay: Binding evaluation of mixture library compounds to Bcl-2 using AS-MS (affinity selection mass spectrometry)
Conditions: AS-MS, mixture of 1200 compounds, Bcl-2, ASMS Ratio(%)=(A−C)/B×100; for ASMS ratio (%) n = 1: replicate n = 1; for ASMS ratio (%) n = 2: replicate n = 2
Summary of the method: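 ASMS Ratio (%) was calculated as (A−C)/B×100, where A is the protein sample after SEC, B the protein-free sample without SEC and C the protein-free sample after SEC. Each compound was at […] in a 1200-member pool with 20 μM Bcl-2, incubated 1 h at 23° C.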

T1 sequence (P10415 whole entry): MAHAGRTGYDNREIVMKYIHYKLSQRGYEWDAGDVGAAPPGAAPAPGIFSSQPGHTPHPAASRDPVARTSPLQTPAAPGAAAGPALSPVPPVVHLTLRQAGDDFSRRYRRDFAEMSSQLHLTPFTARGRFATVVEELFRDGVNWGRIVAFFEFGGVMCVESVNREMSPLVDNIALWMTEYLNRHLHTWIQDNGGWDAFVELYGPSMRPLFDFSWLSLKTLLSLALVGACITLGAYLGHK

| SMILES | ASMS ratio (%) n = 1 | ASMS ratio (%) n = 2 |
| --- | --- | --- |
| CCOc1cncc(C#Cc2cc(C(=O)N3CCN(c4ccc(C(=O)NCC(F)(F)F)nn4)CC3)cc(C(F)(F)F)c2)c1 [B1K020-01, 6-[4-[3-[2-(5-Ethoxypyridin-3-yl)ethynyl]-5-(trifluoromethyl)benzoyl]piperazin-1-yl]-N-(2,2,2-trifluoroethyl)pyridazine-3-carboxamide] | 2.9% | −3.8% |
| CCOc1cccc(-c2cnn(-c3cc(C(=O)N4CCN(c5ccc(C(=O)NCC(F)(F)F)nn5)CC4)cc(C(F)(F)F)c3)c2)c1 [B1K021-01, 6-[4-[3-[4-(3-Ethoxyphenyl)pyrazol-1-yl]-5-(trifluoromethyl)benzoyl]piperazin-1-yl]-N-(2,2,2-trifluoroethyl)pyridazine-3-carboxamide] | −0.5% | −1.9% |
| CCOc1cncc(-c2cnn(-c3cc(C(=O)N4CCN(c5ccc(C(=O)NCC(F)(F)F)nn5)CC4)cc(C(F)(F)F)c3)c2)c1 [B1K022-01, 6-[4-[3-[4-(5-Ethoxypyridin-3-yl)pyrazol-1-yl]-5-(trifluoromethyl)benzoyl]piperazin-1-yl]-N-(2,2,2-trifluoroethyl)pyridazine-3-carboxamide] | 1.4% | 0.1% |
| CCOc1cccc(-c2csc(C(=O)N3CCN(c4ccc(C(=O)NCC(F)(F)F)cc4)CC3)c2)c1 [B1K023-01, 4-[4-[4-(3-Ethoxyphenyl)thiophene-2-carbonyl]piperazin-1-yl]-N-(2,2,2-trifluoroethyl)benzamide] | 4.3% | 1.3% |
| CCOc1cncc(-c2csc(C(=O)N3CCN(c4ccc(C(=O)NCC(F)(F)F)cc4)CC3)c2)c1 [B1K024-01, 4-[4-[4-(5-Ethoxypyridin-3-yl)thiophene-2-carbonyl]piperazin-1-yl]-N-(2,2,2-trifluoroethyl)benzamide] | 0.0% | 0.0% |
| CCOc1cccc(-c2ccc(C(=O)N3CCN(c4ccc(C(=O)NCC(F)(F)F)cc4)CC3)cc2C)c1 [B1K025-01, 4-[4-[4-(3-Ethoxyphenyl)-3-methylbenzoyl]piperazin-1-yl]-N-(2,2,2-trifluoroethyl)benzamide] | 0.3% | −0.8% |
| CCOc1cncc(-c2ccc(C(=O)N3CCN(c4ccc(C(=O)NCC(F)(F)F)cc4)CC3)cc2C)c1 [B1K026-01, 4-[4-[4-(5-Ethoxypyridin-3-yl)-3-methylbenzoyl]piperazin-1-yl]-N-(2,2,2-trifluoroethyl)benzamide] | 4.2% | 0.2% |
| CCOc1cccc(-c2ccc(C(=O)N3CCN(c4ccc(C(=O)NCC(F)(F)F)cc4)CC3)cc2F)c1 [B1K027-01, 4-[4-[4-(3-Ethoxyphenyl)-3-fluorobenzoyl]piperazin-1-yl]-N-(2,2,2-trifluoroethyl)benzamide] | −0.8% | −3.6% |
| CCOc1cncc(-c2ccc(C(=O)N3CCN(c4ccc(C(=O)NCC(F)(F)F)cc4)CC3)cc2F)c1 [B1K028-01, 4-[4-[4-(5-Ethoxypyridin-3-yl)-3-fluorobenzoyl]piperazin-1-yl]-N-(2,2,2-trifluoroethyl)benzamide] | 0.0% | 0.0% |
| CCOc1cncc(C#Cc2ccccc2C(=O)N2CCN(c3ccc(C(=O)NCC(F)(F)F)cc3)CC2)c1 [B1K030-01, 4-[4-[2-[2-(5-Ethoxypyridin-3-yl)ethynyl]benzoyl]piperazin-1-yl]-N-(2,2,2-trifluoroethyl)benzamide] | 0.0% | 0.9% |
| CCOc1cccc(C#Cc2cncc(C(=O)N3CCN(c4ccc(C(=O)NCC(F)(F)F)cc4)CC3)c2)c1 [B1K031-01, 4-[4-[5-[2-(3-Ethoxyphenyl)ethynyl]pyridine-3-carbonyl]piperazin-1-yl]-N-(2,2,2-trifluoroethyl)benzamide] | 0.0% | 0.0% |
| CCOc1cccc(-c2ccccc2CCC(=O)N2CCN(c3ccc(C(=O)NCC(F)(F)F)cc3)CC2)c1 [B1K033-01, 4-[4-[3-[2-(3-Ethoxyphenyl)phenyl]propanoyl]piperazin-1-yl]-N-(2,2,2-trifluoroethyl)benzamide] | 2.3% | −0.6% |
| CCOc1cncc(-c2ccccc2CCC(=O)N2CCN(c3ccc(C(=O)NCC(F)(F)F)cc3)CC2)c1 [B1K034-01, 4-[4-[3-[2-(5-Ethoxypyridin-3-yl)phenyl]propanoyl]piperazin-1-yl]-N-(2,2,2-trifluoroethyl)benzamide] | −0.3% | 0.0% |
| CCOc1cccc(-c2ccc(C(=O)N3CCN(c4ccc(C(=O)NCC(F)(F)F)cc4)CC3)c3ccccc23)c1 [B1K035-01, 4-[4-[4-(3-Ethoxyphenyl)naphthalene-1-carbonyl]piperazin-1-yl]-N-(2,2,2-trifluoroethyl)benzamide] | 4.8% | 4.5% |
| CCOc1cncc(-c2ccc(C(=O)N3CCN(c4ccc(C(=O)NCC(F)(F)F)cc4)CC3)c3ccccc23)c1 [B1K036-01, 4-[4-[4-(5-Ethoxypyridin-3-yl)naphthalene-1-carbonyl]piperazin-1-yl]-N-(2,2,2-trifluoroethyl)benzamide] | 1.1% | −0.4% |
| CCOc1cccc(-c2cc(C(=O)N3CCN(c4ccc(C(=O)NCC(F)(F)F)cc4)CC3)cc(C(C)(C)C)c2)c1 [B1K037-01, 4-[4-[3-tert-Butyl-5-(3-ethoxyphenyl)benzoyl]piperazin-1-yl]-N-(2,2,2-trifluoroethyl)benzamide] | 0.8% | 1.9% |
| CCOc1cncc(-c2cc(C(=O)N3CCN(c4ccc(C(=O)NCC(F)(F)F)cc4)CC3)cc(C(C)(C)C)c2)c1 [B1K038-01, 4-[4-[3-tert-Butyl-5-(5-ethoxypyridin-3-yl)benzoyl]piperazin-1-yl]-N-(2,2,2-trifluoroethyl)benzamide] | 0.6% | −1.8% |
| CCOc1cccc(C#Cc2cc(C(=O)N3CCN(c4ccc(C(=O)NCC(F)(F)F)cc4)CC3)cc(C(F)(F)F)c2)c1 [B1K041-01, 4-[4-[3-[2-(3-Ethoxyphenyl)ethynyl]-5-(trifluoromethyl)benzoyl]piperazin-1-yl]-N-(2,2,2-trifluoroethyl)benzamide] | 0.0% | 0.0% |
| CCOc1cncc(C#Cc2cc(C(=O)N3CCN(c4ccc(C(=O)NCC(F)(F)F)cc4)CC3)cc(C(F)(F)F)c2)c1 [B1K042-01, 4-[4-[3-[2-(5-Ethoxypyridin-3-yl)ethynyl]-5-(trifluoromethyl)benzoyl]piperazin-1-yl]-N-(2,2,2-trifluoroethyl)benzamide] | 5.0% | −0.1% |
| CCOc1cccc(-c2cnn(-c3cc(C(=O)N4CCN(c5ccc(C(=O)NCC(F)(F)F)cc5)CC4)cc(C(F)(F)F)c3)c2)c1 [B1K043-01, 4-[4-[3-[4-(3-Ethoxyphenyl)pyrazol-1-yl]-5-(trifluoromethyl)benzoyl]piperazin-1-yl]-N-(2,2,2-trifluoroethyl)benzamide] | 3.8% | 1.9% |
| CCOc1cncc(-c2cnn(-c3cc(C(=O)N4CCN(c5ccc(C(=O)NCC(F)(F)F)cc5)CC4)cc(C(F)(F)F)c3)c2)c1 [B1K044-01, 4-[4-[3-[4-(5-Ethoxypyridin-3-yl)pyrazol-1-yl]-5-(trifluoromethyl)benzoyl]piperazin-1-yl]-N-(2,2,2-trifluoroethyl)benzamide] | 2.6% | 1.0% |
| CCOc1cccc(-c2ccccc2CN2CCN(c3ccc(C(=O)NCC(F)(F)F)cc3)CC2)c1 [B1K045-01, 4-[4-[[2-(3-Ethoxyphenyl)phenyl]methyl]piperazin-1-yl]-N-(2,2,2-trifluoroethyl)benzamide] | 1.5% | −0.1% |
| CCOc1cncc(-c2ccccc2CN2CCN(c3ccc(C(=O)NCC(F)(F)F)cc3)CC2)c1 [B1K046-01, 4-[4-[[2-(5-Ethoxypyridin-3-yl)phenyl]methyl]piperazin-1-yl]-N-(2,2,2-trifluoroethyl)benzamide] | −0.1% | 0.5% |
| CCOc1cccc(-c2ccc(CN3CCN(c4ccc(C(=O)NCC(F)(F)F)cc4)CC3)cc2C)c1 [B1K047-01] | 3.3% | 0.5% |
| CCOc1cncc(-c2ccc(CN3CCN(c4ccc(C(=O)NCC(F)(F)F)cc4)CC3)cc2C)c1 [B1K048-01, 4-[4-[[4-(5-Ethoxypyridin-3-yl)-3-methylphenyl]methyl]piperazin-1-yl]-N-(2,2,2-trifluoroethyl)benzamide] | 0.1% | 1.2% |
| CCOc1cccc(-c2ccc(CN3CCN(c4ccc(C(=O)NCC(F)(F)F)cc4)CC3)c(CC)c2)c1 [B1K049-01, 4-[4-[[4-(3-Ethoxyphenyl)-2-ethylphenyl]methyl]piperazin-1-yl]-N-(2,2,2-trifluoroethyl)benzamide] | −3.3% | 1.5% |
| CCOc1cncc(-c2ccc(CN3CCN(c4ccc(C(=O)NCC(F)(F)F)cc4)CC3)c(CC)c2)c1 [B1K050-01] | 0.0% | 0.0% |
| CCOc1cccc(-c2ccc(CN3CCN(c4ccc(C(=O)NCC(F)(F)F)cc4)CC3)cc2F)c1 [B1K051-01, 4-[4-[[4-(3-Ethoxyphenyl)-3-fluorophenyl]methyl]piperazin-1-yl]-N-(2,2,2-trifluoroethyl)benzamide] | 2.8% | 2.0% |
